Assay results as given in patent US8106055B2, “Substituted amide compounds” (Gruenenthal GmbH, priority 2007, dated 2012).
Read-outs that look alike come from different tables or passages of the source.

Key:
[1] = target: T1, serotonin (5-HT) reuptake (Rattus norvegicus, UniProt P31652); assay: Inhibition of serotonin (5HT) reuptake in synaptosomes from rat brain; type: biochemical; details: test concentration of 10 μM; read-out: 5-HT (inhibition of reuptake of serotonin, % inhibition)
T1 construct: synaptosomes are freshly isolated from areas of the rat brain; from tissue; host or cells: rat brain synaptosomes (P2 fraction)
Outline: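 Compounds screened at 10 μM and reported as percent inhibition of serotonin uptake. Uptake measured in a freshly prepared P2 synaptosomal fraction from rat brain.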

[2] = target: T2, bradykinin 1 receptor (B1R) of the rat (Rattus norvegicus, UniProt P97583); assay: Functional investigation on the rat bradykinin 1 receptor (B1R), Ca2+ FLIPR assay in CHO K1 rB1R cells; type: cell-based
T2 construct: expressed in transfected cells; host or cells: CHO K1 cells
T2 sequence (P97583 1-337): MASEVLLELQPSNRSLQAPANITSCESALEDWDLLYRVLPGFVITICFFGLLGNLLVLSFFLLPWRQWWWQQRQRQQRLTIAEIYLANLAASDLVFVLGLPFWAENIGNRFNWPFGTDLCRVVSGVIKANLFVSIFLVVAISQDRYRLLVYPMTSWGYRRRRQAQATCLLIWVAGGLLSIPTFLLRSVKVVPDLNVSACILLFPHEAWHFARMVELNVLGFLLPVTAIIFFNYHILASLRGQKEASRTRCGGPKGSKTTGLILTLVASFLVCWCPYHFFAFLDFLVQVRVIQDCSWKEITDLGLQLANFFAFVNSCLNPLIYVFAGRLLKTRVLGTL
Outline: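 Fluo-4 Ca2+ readout, peak fluorescence. Stable CHO K1 transfectants; compound pre-incubated 10-20 min, then EC80 agonist—Lys-Des-Arg9-BK for hB1R, Des-Arg9-BK for rB1R. % inhibition vs maximal inhibition; IC50 from multiple concentrations, duplicate/triplicate, ≥2 independent runs.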

[3] = CHO-K1, B1R antagonism rat, test substance 10 μM, Ca2+ FLIPR, CHO K1 rB1R cells, read-out: B1R Ant. r [10 μM] % Inhibition

T1 sequence (P31652 whole entry): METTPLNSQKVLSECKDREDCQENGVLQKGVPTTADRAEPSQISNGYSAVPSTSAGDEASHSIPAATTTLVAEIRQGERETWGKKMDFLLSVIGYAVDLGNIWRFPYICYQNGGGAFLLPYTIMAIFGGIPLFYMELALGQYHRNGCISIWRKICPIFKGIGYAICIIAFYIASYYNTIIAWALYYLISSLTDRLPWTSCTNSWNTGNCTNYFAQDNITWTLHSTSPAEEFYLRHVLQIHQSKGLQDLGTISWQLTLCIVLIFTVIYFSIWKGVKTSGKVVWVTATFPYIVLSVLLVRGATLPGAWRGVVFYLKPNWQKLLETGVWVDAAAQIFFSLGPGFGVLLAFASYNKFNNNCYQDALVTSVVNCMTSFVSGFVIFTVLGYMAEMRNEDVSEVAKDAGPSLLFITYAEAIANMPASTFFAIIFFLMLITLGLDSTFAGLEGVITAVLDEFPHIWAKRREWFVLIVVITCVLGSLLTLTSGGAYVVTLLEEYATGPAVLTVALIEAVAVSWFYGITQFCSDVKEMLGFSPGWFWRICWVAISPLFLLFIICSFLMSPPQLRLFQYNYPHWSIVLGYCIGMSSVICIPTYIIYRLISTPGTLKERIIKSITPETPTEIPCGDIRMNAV

Row | SMILES | inhibition at 10 µM [1] | inhibition at 10 µM [2, 3] | inhibition at 10 µM ([2]; CHO-K1, read-out: B1R Ant. r [10 μM] % Inhibition) | B1R Ant. r [10 μM] % Inhibition ([2]; B1R antagonism rat, test substance 10 μM, Ca2+ FLIPR, CHO K1 rB1R cells)
1 | COc1cc(C)c(S(=O)(=O)N2CCC(OCC(=O)NCC3CCC(C(c4cccs4)N(C)C)CC3)C2)c(C)c1C (stereo not shown) [Example 58, N-((4-((dimethylamino)(thiophen-2-yl)methyl)cyclohexyl)methyl)-2-(1-(4-methoxy-2,3,6-trimethylphenylsulfonyl)pyrrolidin-3-yloxy)acetamide] | 94% | 5% |  | 
2 | CCN(CCOCC(=O)NC1CCC(C(c2cccs2)N(C)C)CC1)S(=O)(=O)c1c(C)cc(OC)c(C)c1C (stereo not shown) [Example 59, N-(4-((dimethylamino)(thiophen-2-yl)methyl)cyclohexyl)-2-(2-(N-ethyl-4-methoxy-2,3,6-trimethylphenylsulfonamido)ethoxy)acetamide] | 92% | 70% |  | 
3 | COc1cc(C)c(S(=O)(=O)N2CCCC(OCC(=O)NCC3CCC(C(c4cccs4)N(C)C)CC3)C2)c(C)c1C (stereo not shown) [Example 60, N-((4-((dimethylamino)(thiophen-2-yl)methyl)cyclohexyl)methyl)-2-(1-(4-methoxy-2,3,6-trimethylphenylsulfonyl)piperidin-3-yloxy)acetamide] | 92% | 11% |  | 
4 | COc1cc(C)c(S(=O)(=O)N2CCN(CCOCC(=O)NCC3CCC(C(c4ccccc4)N(C)C)CC3)CC2)c(C)c1C (stereo not shown) [Example 61, N-((4-((dimethylamino)(phenyl)methyl)cyclohexyl)methyl)-2-(2-(4-(4-methoxy-2,3,6-trimethylphenylsulfonyl)piperazin-1-yl)ethoxy)acetamide] | 95% | 25% |  | 
5 | COc1ccc(S(=O)(=O)N2CCCCC2CCOCC(=O)NC2CCC(C(c3cccc(F)c3)N(C)C)CC2)cc1 (stereo not shown) [Example 62, N-(4-((dimethylamino)(3-fluorophenyl)methyl)cyclohexyl)-2-(2-(1-(4-methoxyphenylsulfonyl)piperidin-2-yl)ethoxy)acetamide] | 96% | 32% |  | 
6 | Cc1cc(C)c(S(=O)(=O)N2CCC(OCC(=O)NC3CCC(C(c4ccccc4)N(C)C)CC3)C2)c(C)c1 (stereo not shown) [Example 64, N-(4-((dimethylamino)(phenyl)methyl)cyclohexyl)-2-(1-(mesitylsulfonyl)pyrrolidin-3-yloxy)acetamide] | 83% | 16% |  | 
7 | CN(C)C(c1cccs1)C1CCC(CCNC(=O)COCCN(C)S(=O)(=O)c2ccc(OC(F)(F)F)cc2)CC1 (stereo not shown) [Example 65, N-(2-(4-((dimethylamino)(thiophen-2-yl)methyl)cyclohexyl)ethyl)-2-(2-(N-methyl-4-(trifluoromethoxy)phenylsulfonamido)ethoxy)acetamide] | 95% | 18% |  | 
8 | CN(C)C(c1cccs1)C1CCC(CCNC(=O)COC2CCN(S(=O)(=O)c3ccc(Cl)cc3)C2)CC1 (stereo not shown) [Example 66, 2-(1-(4-chlorophenylsulfonyl)pyrrolidin-3-yloxy)-N-(2-(4-((dimethylamino)(thiophen-2-yl)methyl)cyclohexyl)ethyl)acetamide] | 85% | 30% |  | 
9 | CN(C)C(c1ccccc1)C1CCC(CNC(=O)COC2CCN(S(=O)(=O)c3ccc(Cl)cc3Cl)C2)CC1 (stereo not shown) [Example 67, 2-(1-(2,4-dichlorophenylsulfonyl)pyrrolidin-3-yloxy)-N-((4-((dimethylamino)(phenyl)methyl)cyclohexyl)methyl)acetamide] | 87% |  | 46% | 
10 | Cc1ccc(S(=O)(=O)N2CCC(OCC(=O)NCC3CCC(C(c4cccs4)N(C)C)CC3)C2)cc1 (stereo not shown) [Example 68, N-((4-((dimethylamino)(thiophen-2-yl)methyl)cyclohexyl)methyl)-2-(1-tosylpyrrolidin-3-yloxy)acetamide] | 82% | 39% |  | 
11 | COc1cc(C)c(S(=O)(=O)N(C)CCOCC(=O)NCC2CCC(C(c3cccs3)N(C)C)CC2)c(C)c1 (stereo not shown) [Example 69, N-((4-((dimethylamino)(thiophen-2-yl)methyl)cyclohexyl)methyl)-2-(2-(4-methoxy-N,2,6-trimethylphenylsulfonamido)ethoxy)acetamide] | 86% | 100% |  | 
12 | CN(C)C(c1cccc(F)c1)C1CCC(CNC(=O)COCCN(C)S(=O)(=O)c2ccc(Cl)cc2Cl)CC1 (stereo not shown) [Example 70, 2-(2-(2,4-dichloro-N-methylphenylsulfonamido)ethoxy)-N-((4-((dimethylamino)(3-fluorophenyl)methyl)cyclohexyl)methyl)acetamide] | 86% | 31% |  | 
13 | Cc1cc(C)c(S(=O)(=O)N2CCC(OCC(=O)NCCC3CCC(C(c4cccs4)N(C)C)CC3)C2)c(C)c1 (stereo not shown) [Example 71, N-(2-(4-((dimethylamino)(thiophen-2-yl)methyl)cyclohexyl)ethyl)-2-(1-(mesitylsulfonyl)pyrrolidin-3-yloxy)acetamide] | 79% | 54% |  | 
14 | CN(C)C(c1cccc(F)c1)C1CCC(CNC(=O)COCCN(C)S(=O)(=O)c2c(Cl)cccc2Cl)CC1 (stereo not shown) [Example 72, 2-(2-(2,6-dichloro-N-methylphenylsulfonamido)ethoxy)-N-((4-((dimethylamino)(3-fluorophenyl)methyl)cyclohexyl)methyl)acetamide] | 84% | 38% |  | 
15 | COc1ccc(S(=O)(=O)N(C)CCOCC(=O)NC2CCC(C(c3cccs3)N(C)C)CC2)cc1 (stereo not shown) [Example 73, N-(4-((dimethylamino)(thiophen-2-yl)methyl)cyclohexyl)-2-(2-(4-methoxy-N-methylphenylsulfonamido)ethoxy)acetamide] | 77% | 29% |  | 
16 | COc1cc(C)c(S(=O)(=O)N2CCC(OCC(=O)NCCC3CCC(C(c4cccs4)N(C)C)CC3)C2)c(C)c1C (stereo not shown) [Example 74, N-(2-(4-((dimethylamino)(thiophen-2-yl)methyl)cyclohexyl)ethyl)-2-(1-(4-methoxy-2,3,6-trimethylphenylsulfonyl)pyrrolidin-3-yloxy)acetamide] | 98% | 27% |  | 
17 | COc1cc(C)c(S(=O)(=O)N2CCC(CCOCC(=O)NCCC3CCC(C(c4cccs4)N(C)C)CC3)CC2)c(C)c1C (stereo not shown) [Example 75, N-(2-(4-((dimethylamino)(thiophen-2-yl)methyl)cyclohexyl)ethyl)-2-(2-(1-(4-methoxy-2,3,6-trimethylphenylsulfonyl)piperidin-4-yl)ethoxy)acetamide] | 96% | 15% |  | 
18 | COc1cc(C)c(S(=O)(=O)N2CCN(CCOCC(=O)NC3CCC(C(c4cccc(F)c4)N(C)C)CC3)CC2)c(C)c1C (stereo not shown) [Example 76, N-(4-((dimethylamino)(3-fluorophenyl)methyl)cyclohexyl)-2-(2-(4-(4-methoxy-2,3,6-trimethylphenylsulfonyl)piperazin-1-yl)ethoxy)acetamide] | 96% | -7% |  | 
19 | COc1ccc(S(=O)(=O)N2CCCC2COCC(=O)NCCC2CCC(C(c3cccs3)N(C)C)CC2)cc1 (stereo not shown) [Example 77, N-(2-(4-((dimethylamino)(thiophen-2-yl)methyl)cyclohexyl)ethyl)-2-((1-(4-methoxyphenylsulfonyl)pyrrolidin-2-yl)methoxy)acetamide] | 98% | 44% |  | 
20 | CN(C)C(c1ccccc1)C1CCC(CNC(=O)COC2CCCCC2N(C)S(=O)(=O)c2ccc(Cl)c(Cl)c2)CC1 (stereo not shown) [Example 78, 2-(2-(3,4-dichloro-N-methylphenylsulfonamido)cyclohexyloxy)-N-((4-((dimethylamino)(phenyl)methyl)cyclohexyl)methyl)acetamide] | 86% | 2% |  | 
21 | COc1cc(C)c(S(=O)(=O)N(C)CCOCC(=O)NC2CCC(C(c3ccccc3)N(C)C)CC2)c(C)c1C (stereo not shown) [Example 80, N-(4-((dimethylamino) (phenyl)methyl)cyclohexyl)-2-(2-(4-methoxy-N,2,3,6-tetramethylphenylsulfonamido)ethoxy)acetamide] | 84% |  |  | 6%
22 | CN(C)C(c1ccccc1)C1CCC(CNC(=O)COC2CCN(S(=O)(=O)c3ccc(Cl)cc3)C2)CC1 (stereo not shown) [Example 81, 2-(1-(4-chlorophenylsulfonyl)pyrrolidin-3-yloxy)-N-((4-((dimethylamino)(phenyl)methyl)cyclohexyl)methyl)acetamide] | 91% | 5% |  | 
23 | Cc1ccc(S(=O)(=O)N(C)CCOCC(=O)NCCC2CCC(C(c3cccs3)N(C)C)CC2)cc1 (stereo not shown) [Example 82, N-(2-(4-((dimethylamino)(thiophen-2-yl)methyl)cyclohexyl)ethyl)-2-(2-(N,4-dimethylphenylsulfonamido)ethoxy)acetamide] | 85% | -1% |  | 
